Consider 18 compounds from patent US8163771B2, “11 β-HSD1 modulators” (Exelixis, Inc., priority 2008, dated 2012).

Structures are written as SMILES. A value given as a limit tells only on which side of the number the result lay.

For this test, the target named is T1, recombinant human 11 β-HSD1 (Homo sapiens, UniProt P28845).
T1 construct: made in house; host or cells: E. coli
T1 sequence (P28845 whole entry): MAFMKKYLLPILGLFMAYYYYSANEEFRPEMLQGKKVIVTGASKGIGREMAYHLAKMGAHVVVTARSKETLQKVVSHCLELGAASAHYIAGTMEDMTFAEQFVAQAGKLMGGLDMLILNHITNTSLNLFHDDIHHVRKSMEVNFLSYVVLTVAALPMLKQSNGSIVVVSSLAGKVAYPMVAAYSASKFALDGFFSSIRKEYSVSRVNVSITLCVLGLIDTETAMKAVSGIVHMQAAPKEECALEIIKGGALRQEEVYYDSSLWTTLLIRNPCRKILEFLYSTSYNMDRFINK
Nature of the test: 11 β-HSD1 SPA Assay (Scintillation Proximity Assay). In kind it is biochemical. A digest of the protocol: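 Scintillation proximity read-out of cortisol formed from 40 nM [3H]cortisone by purified recombinant human enzyme (30-100 nM, E. coli) with 1 mM NADPH, pH7.4, 2 hours at room temperature; beads with cortisol antibody and glycyrrhetinic acid stop the reaction, read next day. IC50 derived from inhibition normalised to background and maximal wells.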
By IC50 is commonly meant the concentration that inhibits the measured activity by half. Turning to `CC(C)(Oc1cc(C(F)(F)F)ccc1F)C(=O)N[C@H]1C[C@H]2CC[C@@H](C1)N2c1ccc(S(C)(=O)=O)cn1` [Example 335, 2-{[2-fluoro-5-(trifluoromethyl)phenyl]oxy}-2-methyl-N-{8-[5-(methylsulfonyl)pyridin-2-yl]-8-azabicyclo[3.2.1]oct-3-endo-yl}propanamide], the IC50 is less than 2000 nM.

For `CC(C)(O)CNC(=O)c1ccc(N2[C@@H]3CC[C@H]2C[C@@H](NC(=O)C(C)(C)Oc2cc(C(C)(C)O)c(Cl)cc2Cl)C3)nc1` [Example 336, 6-[3-endo-({2-[2,4-dichloro-5-(2-hydroxypropan-2-yl)phenoxy]-2-methylpropanoyl}amino)-8-azabicyclo[3.2.1]oct-8-yl]-N-(2-hydroxy-2-methylpropyl)pyridine-3-carboxamide], the IC50 is less than 200 nM.

For the compound `CC(C)(Oc1ccc(Cl)cc1Br)C(=O)N[C@H]1C[C@H]2CC[C@@H](C1)N2c1ccc(C(=O)NCC(F)(F)F)cn1` [Example 337, 6-(3-endo-{[2-(2-bromo-4-chlorophenoxy)-2-methylpropanoyl]amino}-8-azabicyclo[3.2.1]oct-8-yl)-N-(2,2,2-trifluoroethyl)pyridine-3-carboxamide], the IC50 was less than 200 nM.

With `CC(C)(Oc1ccc2ccccc2c1)C(=O)N[C@H]1C[C@H]2CC[C@@H](C1)N2c1ccc(C(=O)NCC(F)(F)F)cn1` [Example 338, 6-(3-endo-{[2-methyl-2-(naphthalen-2-yloxy)propanoyl]amino}-8-azabicyclo[3.2.1]oct-8-yl)-N-(2,2,2-trifluoroethyl)pyridine-3-carboxamide], the half-inhibitory concentration (IC50) is less than 200 nM.

Consider `CC(C)(Oc1nccc2ccccc12)C(=O)N[C@H]1C[C@H]2CC[C@@H](C1)N2c1ccc(C(N)=O)cn1` [Example 339, 6-(3-endo-{[2-(isoquinolin-1-yloxy)-2-methylpropanoyl]amino}-8-azabicyclo[3.2.1]oct-8-yl)pyridine-3-carboxamide], for which the IC50 was less than 200 nM.

Consider `CC(C)(Oc1ccc(Cl)cc1Cl)C(=O)N[C@H]1C[C@H]2CC[C@@H](C1)N2c1ccc(C(=O)NCCN2CCCC2)cn1` [Example 340, 6-(3-endo-{[2-(2,4-dichlorophenoxy)-2-methylpropanoyl]amino}-8-azabicyclo[3.2.1]oct-8-yl)-N-[2-(pyrrolidin-1-yl)ethyl]pyridine-3-carboxamide], for which the concentration for half-maximal inhibition (IC50) is less than 200 nM.

As to `CC(C)(Oc1ccc(Cl)cc1Cl)C(=O)N[C@H]1C[C@H]2CC[C@@H](C1)N2c1ccc(C(=O)NCCCn2ccnc2)cn1` [Example 341, 6-(3-endo-{[2-(2,4-dichlorophenoxy)-2-methylpropanoyl]amino}-8-azabicyclo[3.2.1]oct-8-yl)-N-[3-(1h-imidazol-1-yl)propyl]pyridine-3-carboxamide], the 50% inhibitory concentration (IC50) was less than 200 nM.

As for `CC(C)(Oc1ccc(Cl)cc1Cl)C(=O)N[C@H]1C[C@H]2CC[C@@H](C1)N2c1ccc(C(=O)NCc2ccncc2)cn1` [Example 342, 6-(3-endo-{[2-(2,4-dichlorophenoxy)-2-methylpropanoyl]amino}-8-azabicyclo[3.2.1]oct-8-yl)-N-(pyridin-4-ylmethyl)pyridine-3-carboxamide], the half-inhibitory concentration (IC50) was less than 200 nM.

Take `CC(C)(Oc1ccc(Cl)cc1C(F)(F)F)C(=O)N[C@H]1C[C@H]2CC[C@@H](C1)N2c1ccc(C(=O)NCC(F)F)cn1` [Example 343, 6-[3-endo-({2-[4-chloro-2-(trifluoromethyl)phenoxy]-2-methylpropanoyl}amino)-8-azabicyclo[3.2.1]oct-8-yl]-N-(2,2-difluoroethyl)pyridine-3-carboxamide]: the concentration for half-maximal inhibition (IC50) is less than 200 nM.

As to `CC(C)(Oc1cc(-c2ccccc2)ccc1Cl)C(=O)N[C@H]1C[C@H]2CC[C@@H](C1)N2c1ccc(C(N)=O)cn1` [Example 344, 6-[3-endo-({2-[(4-chlorobiphenyl-3-yl)oxy]-2-methylpropanoyl}amino)-8-azabicyclo[3.2.1]oct-8-yl]pyridine-3-carboxamide], the half-inhibitory concentration (IC50) is less than 200 nM.

As to `CC(C)(Oc1ccc(Cl)cc1C(F)(F)F)C(=O)NC1CC2CCC(C1)N2c1ccc(C(=O)NC2CC2(F)F)cn1` (stereo not drawn) [Example 345, 6-[3-endo-({2-[4-chloro-2-(trifluoromethyl)phenoxy]-2-methylpropanoyl}amino)-8-azabicyclo[3.2.1]oct-8-yl]-N-(2,2-difluorocyclopropyl)pyridine-3-carboxamide], the half-inhibitory concentration (IC50) is less than 200 nM.

Take `CC(C)(Oc1cc(-c2ccc(F)cc2)ccc1Cl)C(=O)N[C@H]1C[C@H]2CC[C@@H](C1)N2c1ccc(C(N)=O)cn1` [Example 346, 6-[3-endo-({2-[(4-chloro-4′-fluorobiphenyl-3-yl)oxy]-2-methylpropanoyl}amino)-8-azabicyclo[3.2.1]oct-8-yl]pyridine-3-carboxamide]: the concentration for half-maximal inhibition (IC50) is less than 200 nM.

For `CC(C)(Oc1ccccc1OC(F)(F)F)C(=O)N[C@H]1C[C@H]2CC[C@@H](C1)N2c1ccc(C(=O)NCC(F)(F)F)cn1` [Example 347, 6-[3-endo-({2-methyl-2-[2-(trifluoromethoxy)phenoxy]propanoyl}amino)-8-azabicyclo[3.2.1]oct-8-yl]-N-(2,2,2-trifluoroethyl)pyridine-3-carboxamide], the IC50 was less than 200 nM.

With `CC(C)(Oc1ccc2ccccc2c1Cl)C(=O)N[C@H]1C[C@H]2CC[C@@H](C1)N2c1ccc(C(=O)NCC(F)(F)F)cn1` [Example 348, 6-[3-endo-({2-[(1-chloronaphthalen-2-yl)oxy]-2-methylpropanoyl}amino)-8-azabicyclo[3.2.1]oct-8-yl]-N-(2,2,2-trifluoroethyl)pyridine-3-carboxamide], the IC50 is less than 200 nM.

On to `CC(C)(Oc1ccc(F)cc1Cl)C(=O)NC1CC2CCC(C1)N2c1ccc(C(=O)NC2CC2(F)F)cn1` (stereo not drawn) [Example 349, 6-(3-endo-{[2-(2-chloro-4-fluorophenoxy)-2-methylpropanoyl]amino}-8-azabicyclo[3.2.1]oct-8-yl)-N-(2,2-difluorocyclopropyl)pyridine-3-carboxamide], for which the IC50 is less than 200 nM.

With `CC(C)(CN1CCCC1)NC(=O)c1ccc(N2[C@@H]3CC[C@H]2C[C@@H](NC(=O)C(C)(C)Oc2ccc(Cl)cc2Cl)C3)nc1` [Example 350, 6-(3-endo-{[2-(2,4-dichlorophenoxy)-2-methylpropanoyl]amino}-8-azabicyclo[3.2.1]oct-8-yl)-N-[2-methyl-1-(pyrrolidin-1-yl)propan-2-yl]pyridine-3-carboxamide], the IC50 is less than 200 nM.

Regarding `CN(C)S(=O)(=O)c1cc(Cl)ccc1OC(C)(C)C(=O)N[C@H]1C[C@H]2CC[C@@H](C1)N2c1ccc(C(=O)NCC(F)(F)F)cn1` [Example 351, 6-[3-endo-({2-[4-chloro-2-(dimethylsulfamoyl)phenoxy]-2-methylpropanoyl}amino)-8-azabicyclo[3.2.1]oct-8-yl]-n-(2,2,2-trifluoroethyl)pyridine-3-carboxamide], the half-maximal inhibitory concentration (IC50) was less than 200 nM.

Consider `COCCOc1cc(Cl)ccc1OC(C)(C)C(=O)N[C@H]1C[C@H]2CC[C@@H](C1)N2c1ccc(C(=O)NCC(F)(F)F)cn1` [Example 352, 6-[3-endo-({2-[4-chloro-2-(2-methoxyethoxy)phenoxy]-2-methylpropanoyl}amino)-8-azabicyclo[3.2.1]oct-8-yl]-N-(2,2,2-trifluoroethyl)pyridine-3-carboxamide], for which the IC50 was less than 200 nM.
